Test results published in patent US7879838B2, “Heteroaryl substituted pyrazinyl-piperazine-piperidines with CXCR3 antagonist activity” (Schering Corporation, priority 2005, dated 2011).

Each molecule was assayed against T1, Human CXCR3 (N-delta 4) (Homo sapiens, UniProt P49682) (assay: Human CXCR3 (N-delta 4) scintillation proximity assay (SPA), [125I] IP-10 binding to Ba/F3-hCXCR3 membranes). Conditions: IC50 rating; 25 pM [125I] IP-10, membranes of Ba/F3 cells expressing human CXCR3 (N-delta 4).
T1 construct: CD8 leader (N); Flag tag; expressed in transfected cells; membranes prepared
T1 sequence (P49682 5-368 limits assumed): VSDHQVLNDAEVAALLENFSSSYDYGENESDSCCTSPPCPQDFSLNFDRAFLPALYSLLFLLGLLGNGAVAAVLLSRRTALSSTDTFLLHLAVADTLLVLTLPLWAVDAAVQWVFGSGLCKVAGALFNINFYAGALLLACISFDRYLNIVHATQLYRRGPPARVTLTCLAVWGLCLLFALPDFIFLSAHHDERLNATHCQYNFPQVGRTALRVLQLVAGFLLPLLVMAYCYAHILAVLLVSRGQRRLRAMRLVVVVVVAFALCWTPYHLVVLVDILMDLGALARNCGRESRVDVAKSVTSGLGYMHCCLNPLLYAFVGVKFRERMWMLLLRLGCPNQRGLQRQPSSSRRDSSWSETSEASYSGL
Summary of the method: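 Membranes from Ba/F3 pro-B cells stably expressing Flag-tagged hCXCR3 (N-delta 4), 2 μg per point, prebound 1 hr to WGA SPA beads in HEPES buffer with CaCl2, MgCl2, NaCl, 1.0% BSA. Competition with 25 pM [125I] IP-10 and titrated compounds, 3 hr at room temperature; bound radioligand counted; […].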

Structure (SMILES)	IC50 [nM]
CC[C@H]1CN(c2nc(N)c(C(N)=O)nc2Cl)CCN1C1CCN(C2OC(C(=O)N(C)C)c3cc(Cl)ccc32)CC1 (some centres unmarked) [compound 151]	25 to 100
CC[C@H]1CN(c2nc(N)c(C(N)=O)nc2Cl)CCN1C1CCN(C(=O)c2ccc(Cl)c3cc[nH]c23)CC1 [compound 152]	> 100
CC[C@H]1CN(c2nc(N)c(C(N)=O)nc2Cl)CCN1C1CCN(Cc2ccc(Cl)c3nn[nH]c23)CC1 [compound 153]	> 100
CC[C@H]1CN(c2ncc(C(=O)NC3CC3)nc2C)[C@H](C)CN1C1CCN(C(=O)c2ccc(Cl)nc2N)CC1 [compound 159]	< 25
CCNC(=O)c1cnc(N2C[C@H](CC)N(C3CCN(C(=O)c4ccc(Cl)nc4N)CC3)C[C@H]2C)c(C)n1 [compound 160]	< 25
CC[C@H]1CN(c2ncc(C(=O)OC)nc2C)CCN1C1CCN(C(=O)c2ccc(Cl)nc2N)CC1 [compound 161]	< 25
CC[C@H]1CN(c2nc(N)c(C(N)=O)nc2C)CCN1C1CCN(C(=O)c2ccc(Cl)nc2N)CC1 [compound 162]	< 25
CC[C@H]1CN(c2ncc(C(=O)NC)nc2C)[C@H](C)CN1C1CCN(C(=O)c2ccc(Cl)nc2N)CC1 [compound 163]	< 25
CC[C@H]1CN(c2ncc(C(=O)OC)nc2C)[C@H](C)CN1C1CCN(C(=O)c2ccc(Cl)nc2N)CC1 [compound 164]	< 25
CC[C@H]1CN(c2ncc(C(N)=O)nc2C)CCN1C1CCN(C(=O)c2ccc(C(F)(F)F)nc2N)CC1 [compound 165]	25 to 100
CC[C@H]1CN(c2nc(N)c(C(N)=O)nc2Cl)[C@H](C)CN1C1CCN(C(=O)c2ccc(Cl)nc2N)CC1 [compound 167]	< 25
CC[C@H]1CN(c2ncc(C(=O)NC(C)(C)C)nc2C)CCN1C1CCN(C(=O)c2ccc(Cl)nc2N)CC1 [compound 170]	< 25
CC[C@H]1CN(c2nc(N)c(C(=O)NCCO)nc2C)CCN1C1CCN(C(=O)c2ccc(Cl)nc2N)CC1 [compound 171]	< 25
CC[C@H]1CN(c2nc(N)c(C(=O)OC)nc2Cl)[C@H](C)CN1C1CCN(C(=O)c2ccc(Cl)nc2N)CC1 [compound 172]	< 25
CC[C@H]1CN(c2ncc(C(=O)NC)nc2C(F)(F)F)CCN1C1CCN(C(=O)c2ccc(Cl)nc2N)CC1 [compound 173]	< 25
CC[C@H]1CN(c2ncc(C(=O)NC3(C)CC3)nc2C)[C@H](C)CN1C1CCN(C(=O)c2ccc(Cl)nc2N)CC1 [compound 174]	< 25
CC[C@H]1CN(c2nc(N)c(C(=O)NC3CC3)nc2C)[C@H](C)CN1C1CCN(C(=O)c2ccc(Cl)nc2N)CC1 [compound 175]	< 25
CC[C@H]1CN(c2ncc(C(=O)NC3CC3)nc2C)CCN1C1CCN(C(=O)c2ccc(C(F)(F)F)nc2N)CC1 [compound 176]	< 25
CC[C@H]1CN(c2nc(N)c(C(=O)NC3CC3)nc2Cl)[C@H](C)CN1C1CCN(C(=O)c2ccc(Cl)nc2N)CC1 [compound 177]	< 25
CC[C@H]1CN(c2ncc(C(=O)NC3CC3)nc2C(F)(F)F)CCN1C1CCN(C(=O)c2ccc(Cl)nc2N)CC1 [compound 178]	< 25
CC[C@H]1CN(c2ncc(C(=O)NC(C)C)nc2C(F)(F)F)CCN1C1CCN(C(=O)c2ccc(Cl)nc2N)CC1 [compound 179]	< 25
CC[C@H]1CN(c2ncc(C(=O)NCCO)nc2C(F)(F)F)CCN1C1CCN(C(=O)c2ccc(Cl)nc2N)CC1 [compound 180]	< 25
CC[C@H]1CN(c2ncc(C(=O)NC3CCC3)nc2C(F)(F)F)CCN1C1CCN(C(=O)c2ccc(Cl)nc2N)CC1 [compound 181]	< 25
